Source: patent US12357574B2, “Particle coating method” (University of Limerick, priority 2020, dated 2025)

Test: Dissolution percentage as a function of time, UV spectrophotometry
Format: physicochemical
Conditions: API as received
Description: The dissolution percentage as a function of time was measured by respectively dissolving the as received CBZ and the coated MCC carrier particles in methanol (although other dissolution media could be used). UV spectrophotometry was used to measure the concentration of the CBZ dissolved in the methanol.

| dissolution percentage (after approximately 50 minutes, methanol) | dissolution percentage (within 10 minutes, methanol) | Compound | dissolution percentage (after approximately 60 minutes) |
| --- | --- | --- | --- |
|  |  | Cc1nc2n(c(=O)c1CCN1CCC(c3noc4cc(F)ccc34)CC1)CCCC2 [Risperidone, risperidone] | less than 40% |
| approximately 80% | less than 40% | NC(=O)N1c2ccccc2C=Cc2ccccc21 [Carbamazepine, carbamazepine] |  |
